One experiment deals with cyclophilin A (CYPA) (Homo sapiens, UniProt P62937). In words: CYPA-compound binary complex formation by SPR. The following applies: read-out: CYPA Binding Affinity. A digest of the protocol: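 Steady-state fit of SPR responses gave binding affinity. Analyte series: 50 μM downward, 2-fold, 10 points, running buffer HBS-P+ (0.05% Tween20, pH7.4, 2% DMSO), 60 s on/60 s off. Surface: biotinylated CypA-Avi captured at 4 μg/ml against a reference cell, regenerated with NaOH/guanidine.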
(In general: Surface plasmon resonance follows binding to a sensor surface in real time, without labels.)

For experiment [1], the target named is T1, BRAF-GTP-KRAS-G12C complex (Homo sapiens, UniProt P01116+P62937, G12C).
T1 construct: 50 nM of His6-KRas G12C-GTP (1-169); 500 nM of tagless CypA (1-165)
Nature of the experiment: KRAS-BRAF complex disruption through competition with CYPA-compound by TR-FRET. The following applies: biochemical BRAF-KRAS G12C-GTP disruption assay EC50, with CYPA. A digest of the protocol: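 Compound-driven loss of KRAS–BRAF RBD TR-FRET signal, Eu-anti-His/APC-anti-GST pair (10/50 nM, 1.5 h), following a 3 h room-temperature preincubation of 50 nM His6-KRAS G12C-GTP and 500 nM CypA in 25 mM Hepes pH 7.3 buffer. EC50 by 4-parameter fit. Variants used wild-type KRAS in place of G12C or no CypA.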
A general note: Time-resolved FRET reads energy transfer from a long-lived donor to a nearby acceptor.

The test system of a further experiment is pERK in H358 cells. In words: pERK inhibition in H358 cells. Type of experiment: cell-based, human. The following applies: 4 hours treatment, read-out: Cellular pERK inhibition. A digest of the protocol: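 Human lung cancer H358 cells in RPMI/10% FBS were exposed to compound or DMSO for 4 h. Fixed and permeabilized cells were stained overnight at 4 C with anti-phospho-ERK1/2 (Thr202/Tyr204). Near-infrared imaging read the pERK signal at 800 nm, with DRAQ5 at 700 nm.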

Each structure is given as a SMILES string.

In general, EC50 refers to the concentration needed to bring the measured effect to its halfway point. Higher therefore signals weaker potency. For `CC(C)[C@@H](C(=O)N[C@H]1Cc2cc(O)cc(c2)-c2ccc3c(Cc4ccccn4)cn(c3c2)C[C@H](C)COC(=O)[C@@H]2CCCN(N2)C1=O)N(C)C(=O)C1CN(C(=O)CCl)C1` [Compound 69], the Kd at cyclophilin A (CYPA) is at most 5 µM. Also, the EC50 in experiment [1] is at most 500 nM. The IC50 in the experiment on pERK in H358 cells is 1000 to 10000 nM.
As to `CON=C(C)c1cn2c3cc(ccc13)-c1cc(O)cc(c1)CC(NC(=O)C(C(C)C)N(C)C(=O)C1CN(C(=O)CCl)C1)C(=O)N1CCCC(N1)C(=O)OCC(C)C2` (stereo not drawn) [Compound 73], the Kd on cyclophilin A (CYPA) was at most 5 µM. In experiment [1], the EC50 is at most 500 nM. For the same compound, in the experiment with pERK in H358 cells, the IC50 is 1000 to 10000 nM.
Take `CC(C)[C@@H](C(=O)N[C@H]1Cc2cc(O)cc(c2)-c2ccc3c(CCC#N)cn(c3c2)C[C@H](C)COC(=O)[C@@H]2CCCN(N2)C1=O)N(C)C(=O)C1CN(C(=O)CCl)C1` [Compound 76]: the Kd on cyclophilin A (CYPA) was at most 5 µM. In experiment [1], the EC50 is at most 500 nM. Further, the IC50 in the experiment with pERK in H358 cells was at most 1000 nM.
With `CC1COC(=O)C2CCCN(N2)C(=O)C(NC(=O)C(C(C)C)N(C)C(=O)C2CN(C(=O)CCl)C2)Cc2cc(O)cc(c2)-c2ccc3c(C(C)C#N)cn(c3c2)C1` (stereo not drawn) [Compound 77], the Kd on cyclophilin A (CYPA) is at most 5 µM. The compound further had an EC50 in experiment [1] of at most 500 nM. In the experiment with pERK in H358 cells, the IC50 was at most 1000 nM.
For `CC(C)[C@@H](C(=O)N[C@H]1Cc2cc(O)cc(c2)-c2ccc3c(C(C#N)C4CC4)cn(c3c2)C[C@H](C)COC(=O)[C@@H]2CCCN(N2)C1=O)N(C)C(=O)C1CN(C(=O)CCl)C1` (stereo partly drawn) [Compound 78], the Kd on cyclophilin A (CYPA) lay in the range of 5 to 15 µM. In experiment [1], this compound displayed a concentration giving a half-maximal response (EC50) of at most 500 nM. For the same compound, the IC50 with pERK in H358 cells is 1000 to 10000 nM.
In the same order, the values of `CC(C)[C@@H](C(=O)N[C@H]1Cc2cc(O)cc(c2)-c2ccc3c(C4(C#N)CCC4)cn(c3c2)C[C@H](C)COC(=O)[C@@H]2CCCN(N2)C1=O)N(C)C(=O)C1CN(C(=O)CCl)C1` [Compound 81] are 5 to 15 µM, at most 500 nM and at most 1000 nM.
In the case of `CC(C)[C@@H](C(=O)N[C@H]1Cc2cc(O)cc(c2)-c2ccc3c(C(C)(C)C#N)c(C#N)n(c3c2)C[C@H](C)COC(=O)[C@@H]2CCCN(N2)C1=O)N(C)C(=O)C1CN(C(=O)CCl)C1` [Compound 85], at cyclophilin A (CYPA), the Kd was at most 5 µM. Also, the EC50 in experiment [1] is at most 500 nM. For the same compound, in the experiment with pERK in H358 cells, the IC50 was at most 1000 nM.
In the same order, the values of `CCc1c(-c2ccccc2OC)n2c3cc(ccc13)-c1cc(O)cc(c1)C[C@H](NC(=O)[C@H](C(C)C)N(C)C(=O)C1CN(C(=O)CCl)C1)C(=O)N1CCC[C@H](N1)C(=O)OC[C@@H](C)C2` [Compound 86] are above 15 µM, at most 500 nM and at most 1000 nM.
Consider `C=CC(=O)N1CCC(C(=O)N(C)C(C(=O)NC2Cc3cc(O)cc(c3)-c3ccc4c(C(C)(C)C#N)cn(c4c3)CC(C)(C)COC(=O)C3CCCN(N3)C2=O)C(C)C)C1` (stereo not drawn) [Compound 89], for which the Kd at cyclophilin A (CYPA) lay in the range of 5 to 15 µM. This compound registered an EC50 in experiment [1] of 500 to 5000 nM. Moreover, the IC50 in the experiment on pERK in H358 cells lay in the range of 1000 to 10000 nM.
For `C=CC(=O)N1CCC(C(=O)N(C)C(C(=O)NC2Cc3cc(O)cc(c3)-c3ccc4cc(-c5ccccc5COC)n(c4c3)CC(C)(C)COC(=O)C3CCCN(N3)C2=O)C(C)C)C1` (stereo not drawn) [Compound 90], the Kd at cyclophilin A (CYPA) was 5 to 15 µM. This compound also displayed an EC50 in experiment [1] of 500 to 5000 nM. In addition, the IC50 in the experiment with pERK in H358 cells was at most 1000 nM.
In the same order, the values of `C#CCOCc1cc2ccc3cc2n1C[C@H](C)COC(=O)[C@@H]1CCCN(N1)C(=O)[C@@H](NC(=O)[C@H](C(C)C)N(C)C(=O)C1CN(C(=O)CCl)C1)Cc1cc(O)cc-3c1` [Compound 91] are 5 to 15 µM, 500 to 5000 nM and 1000 to 10000 nM.
Consider `C=CC(=O)N1CCN([C@H](C(=O)N[C@H]2Cc3cc(O)cc(c3)-c3ccc4c(C)cn(c4c3)CC(C)(C)COC(=O)[C@@H]3CCCN(N3)C2=O)C(C)C)C1=O` [Compound 97], for which the Kd on cyclophilin A (CYPA) is above 15 µM. In experiment [1], this compound showed an EC50 of at most 500 nM. For the same compound, the IC50 in the experiment on pERK in H358 cells was above 10000 nM.
The like results for `CCc1cn2c3cc(ccc13)-c1cc(O)cc(c1)CC(NC(=O)C(C(C)C)N(C)C(=O)C1CN(C(=O)CCl)C1)C(=O)N1CCCC(N1)C(=O)OCC(C)(C)C2` (stereo not drawn) [Compound 99] were, in that order, above 15 µM, at most 500 nM and at most 1000 nM.
In the same order, the values of `CC(C)[C@@H](C(=O)N[C@H]1Cc2cc(O)cc(c2)-c2ccc3c(S(C)(=O)=O)cn(c3c2)CCCOC(=O)[C@@H]2CCCN(N2)C1=O)N(C)C(=O)C1CN(C(=O)CCl)C1` [Compound 102] are 5 to 15 µM, at most 500 nM and above 10000 nM.
For the compound `Cc1cc2ccc3cc2n1CC(C)(C)COC(=O)[C@@H]1CCCN(N1)C(=O)[C@@H](NC(=O)[C@H](C(C)C)N(C)C(=O)C1CN(C(=O)CCl)C1)Cc1cc(O)cc-3c1` [Compound 103], the Kd on cyclophilin A (CYPA) was above 15 µM. Besides, in experiment [1], the EC50 was at most 500 nM. Moreover, the IC50 in the experiment on pERK in H358 cells was in the range of 1000 to 10000 nM.
The like results for `CC(C)[C@@H](C(=O)N[C@H]1Cc2cc(O)cc(c2)-c2ccc3c(Cl)cn(c3c2)CC(C)(C)COC(=O)[C@@H]2CCCN(N2)C1=O)N(C)C(=O)C1CN(C(=O)CCl)C1` [Compound 104] were, in that order, above 15 µM, at most 500 nM and at most 1000 nM.
On to `Cc1c(C#N)c2ccc3cc2n1CC(C)(C)COC(=O)[C@@H]1CCCN(N1)C(=O)[C@@H](NC(=O)[C@H](C(C)C)N(C)C(=O)C1CN(C(=O)CCl)C1)Cc1cc(O)cc-3c1` [Compound 106], for which the Kd on cyclophilin A (CYPA) lay within 5 to 15 µM. Further, the EC50 in experiment [1] was at most 500 nM. Moreover, the IC50 with pERK in H358 cells fell in the range of 1000 to 10000 nM.
In the same order, the values of `CNC(=O)c1cn2c3cc(ccc13)-c1cc(O)cc(c1)C[C@H](NC(=O)[C@H](C(C)C)N(C)C(=O)C1CN(C(=O)CCl)C1)C(=O)N1CCC[C@H](N1)C(=O)OCC(C)(C)C2` [Compound 108] are 5 to 15 µM, at most 500 nM and above 10000 nM.
The like results for `CC(C)C(C(=O)NC1Cc2cc(O)cc(c2)-c2ccc3c(C(=O)N(C)C)cn(c3c2)CC(C)(C)COC(=O)C2CCCN(N2)C1=O)N(C)C(=O)C1CN(C(=O)CCl)C1` (stereo not drawn) [Compound 109] were, in that order, above 15 µM, at most 500 nM and above 10000 nM.
In the same order, the values of `CNC(=O)c1cc2ccc3cc2n1CC(C)COC(=O)C1CCCN(N1)C(=O)C(NC(=O)C(C(C)C)N(C)C(=O)C1CN(C(=O)CCl)C1)Cc1cc(O)cc-3c1` (stereo not drawn) [Compound 115] are at most 5 µM, at most 500 nM and above 10000 nM.
As to `CC(C)[C@@H](C(=O)N[C@H]1Cc2cc(O)cc(c2)-c2ccc3c(C4CC4)cn(c3c2)C[C@H](C)COC(=O)[C@@H]2CCCN(N2)C1=O)N(C)C(=O)C1CN(C(=O)CCl)C1` [Compound 117], at cyclophilin A (CYPA), the Kd lay within 5 to 15 µM. The same compound came in with an EC50 in experiment [1] of at most 500 nM. Moreover, the IC50 in the experiment on pERK in H358 cells is at most 1000 nM.
The like results for `CC(C)[C@@H](C(=O)N[C@H]1Cc2cc(O)cc(c2)-c2ccc3c(C4CCC4)cn(c3c2)C[C@H](C)COC(=O)[C@@H]2CCCN(N2)C1=O)N(C)C(=O)C1CN(C(=O)CCl)C1` [Compound 118] were, in that order, above 15 µM, at most 500 nM and 1000 to 10000 nM.
The like results for `CC(C)[C@@H](C(=O)N[C@H]1Cc2cc(O)cc(c2)-c2ccc3ncn(c3c2)CC(C)(C)COC(=O)[C@@H]2CCCN(N2)C1=O)N(C)C(=O)C1CN(C(=O)CCl)C1` [Compound 139] were, in that order, 5 to 15 µM, at most 500 nM and above 10000 nM.

The record behind these values is patent US20240139185A1, “COMPOUNDS THAT PARTICIPATE IN COOPERATIVE BINDING AND USES THEREOF” (Revolution Medicines, Inc., priority 2018, published 2024).
